These results are taken from patent publication EP4755888A1 (ILAb Co., Ltd., priority 2023, dated 2025).

Molecules are shown by their SMILES.

PD-1/PD-L1, sequence (Q9NZQ7 19-238 limits assumed): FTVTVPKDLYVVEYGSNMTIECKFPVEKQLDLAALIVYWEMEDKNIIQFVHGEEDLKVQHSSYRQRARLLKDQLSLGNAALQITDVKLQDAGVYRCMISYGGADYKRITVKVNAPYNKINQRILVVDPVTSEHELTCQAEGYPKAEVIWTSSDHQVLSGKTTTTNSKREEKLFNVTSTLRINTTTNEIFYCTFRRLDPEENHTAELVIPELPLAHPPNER

The assay has as its target PD-1/PD-L1 (Homo sapiens, UniProt Q9NZQ7). Kind of assay: TR-FRET PD-1/PD-L1 binding inhibition at the molecular level (free proteins). Particulars: Tag1-PD-L1 and Tag2-PD-1 proteins, twelve concentrations from 200 nM, 2 hours at room temperature, read-out: FRET assay (IC50). Put shortly: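 HTRF read-out at 665/620 nm after 2 h at room temperature. Detection used anti-Tag1 Eu cryptate plus anti-Tag2 XL665 antibodies. Tagged PD-L1 and PD-1 proteins were pre-mixed with compound across twelve […] 1:2 dilutions starting at 200 nM.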
Turning to `Cc1c(NC(=O)c2cc3n(n2)CCCC3O)cccc1-c1cccc(NC(=O)c2cc3n(n2)CCCC3O)c1C` (stereo not shown) [Compound 2-1, N,N'-(2,2'-dimethyl-[1,1'-biphenyl]-3,3'-diyl)bis(4-hydroxy-4,5,6,7-tetrahydropyrazolo[1,5-a]pyridine-2-carboxamide)], the IC50 was less than 0.01 µM.
To `Cc1c(NC(=O)c2cc3n(n2)CCCC3NCCO)cccc1-c1cccc(-c2cc3n(n2)CCCC3NCCO)c1C` (stereo not shown) [Compound 158, 4-((2-hydroxyethyl)amino)-N-(3'-(4-((2-hydroxyethyl)amino)-4,5,6,7-tetrahydropyrazolo[1,5-a]pyridin-2-yl)-2,2'-dimethyl-[1,1'-biphenyl]-3-yl)-4,5,6,7-tetrahydropyrazolo[1,5-a]pyridine-2-carboxamide] belongs 0.01 to 0.1 µM; to `Cc1c(NC(=O)c2cc3n(n2)CCC[C@@H]3N2CC[C@@H](O)C2)cccc1-c1cccc(Nc2nc(C(F)(F)F)nc3cc(CN4CC[C@@H](O)C4)cnc23)c1C` [Compound 344], 0.01 to 0.1 µM.
As for `Cc1c(NC(=O)c2cc3n(n2)CCCC3NCC(=O)O)cccc1-c1cccc(NC(=O)c2nc3c(s2)CN(C)CC3)c1C` (stereo not shown) [Compound 149, 2-((2-((2,2'-dimethyl-3'-(5-methyl-4,5,6,7-tetrahydrothiazolo[5,4-c]pyridine-2-carboxamido)-[1,1'-biphenyl]-3-yl)carbamoyl)-4,5,6,7-tetrahydropyrazolo[1,5-a]pyridin-4-yl)amino)acetic acid], the IC50 was less than 0.01 µM.
Turning to `Cn1c(C(=O)Nc2cccc(-c3cccc(NC(=O)c4cc5n(n4)CCCC5NCCO)c3Cl)c2Cl)nc2c1CCN(CCC13CCC(C(=O)O)(CC1)C3)C2` (stereo not shown) [Compound 53, 4-(2-(2-((2,2'-dichloro-3'-(4-((2-hydroxyethyl)amino)-4,5,6,7-tetrahydropyrazolo[1,5-a]pyridine-2-carboxamido)-[1,1'-biphenyl]-3-yl)carbamoyl)-1-methyl-6,7-dihydro-1H-imidazo[4,5-c]pyridin-5(4H)-yl)ethyl)bicyclo[2.2.1]heptane-1-carboxylic acid], the IC50 is less than 0.01 µM.
In the case of `COc1cc(-c2cccc(-c3cccc(NC(=O)c4cc5n(n4)CCC[C@H]5NCC(=O)O)c3Cl)c2Cl)cc(F)c1CNCCO` [Compound 246, (R)-2-((2-((2,2'-dichloro-3"-fluoro-4"-(((2-hydroxyethyl)amino)methyl)-5"-methoxy-[1,1':3',1"-terphenyl]-3-yl)carbamoyl)-4,5,6,7-tetrahydropyrazolo[1,5-a]pyridin-4-yl)amino)acetic acid], the IC50 was less than 0.01 µM.
Turning to `O=C(O)CNC1CCCn2nc(C(=O)Nc3cccc(-c4cccc(NC(=O)c5ccc(CNCCO)cn5)c4Cl)c3Cl)cc21` (stereo not shown) [Compound 89, 2-((2-((2,2'-dichloro-3'-(5-(((2-hydroxyethyl)amino)methyl)picolinamido)-[1,1'-biphenyl]-3-yl)carbamoyl)-4,5,6,7-tetrahydropyrazolo[1,5-a]pyridin-4-yl)amino)acetic acid], the IC50 was less than 0.01 µM.
On to `Cc1c(NC(=O)c2ccc(CNCCO)cn2)cccc1-c1cccc(NC(=O)c2cc3n(n2)CCCC3N2CCC(O)CC2)c1C` (stereo not shown) [Compound 78, N-(3'-(5-(((2-hydroxyethyl)amino)methyl)picolinamido)-2,2'-dimethyl-[1,1'-biphenyl]-3-yl)-4-(4-hydroxypiperidin-1-yl)-4,5,6,7-tetrahydropyrazolo[1,5-a]pyridine-2-carboxamide], for which the IC50 was less than 0.01 µM.
For `Cc1c(NC(=O)c2cc3n(n2)CCCC3O)cccc1-c1cccc(NC(=O)c2nc3c(n2C)CCN(CCC24CCC(C(=O)O)(CC2)C4)C3)c1C` (stereo not shown) [Compound 45, 4-(2-(2-((3'-(4-hydroxy-4,5,6,7-tetrahydropyrazolo[1,5-a]pyridine-2-carboxamido)-2,2'-dimethyl-[1,1'-biphenyl]-3-yl)carbamoyl)-1-methyl-6,7-dihydro-1H-imidazo[4,5-c]pyridin-5(4H)-yl)ethyl)bicyclo[2.2.1]heptane-1-carboxylic acid] the value was less than 0.01 µM.
As to `Cn1c(C(=O)Nc2cccc(-c3cccc(NC(=O)c4cc5n(n4)CCCC5N4CCC(C(=O)O)CC4)c3Cl)c2Cl)nc2c1CCN(CCC13CCC(C(=O)O)(CC1)C3)C2` (stereo not shown) [Compound 59, 1-(2-((3'-(5-(2-(4-carboxybicyclo[2.2.1]heptan-1-yl)ethyl)-1-methyl-4,5,6,7-tetrahydro-1H-imidazo[4,5-c]pyridine-2-carboxamido)-2,2'-dichloro-[1,1'-biphenyl]-3-yl)carbamoyl)-4,5,6,7-tetrahydropyrazolo[1,5-a]pyridin-4-yl)piperidine-4-carboxylic acid], the IC50 is less than 0.01 µM.
As for `O=C(Nc1cccc(-c2cccc(NC(=O)c3cc4n(n3)CCC[C@@H]4NCCO)c2Cl)c1Cl)c1cc2n(n1)CCC[C@@H]2NCCO` [Compound 316, (4S,4'S)-N,N'-(2,2'-dichloro-[1,1'-biphenyl]-3,3'-diyl)bis(4-((2-hydroxyethyl)amino)-4,5,6,7-tetrahydropyrazolo[1,5-a]pyridine-2-carboxamide)], the half-maximal inhibitory concentration (IC50) was less than 0.01 µM.
To `Cc1c(NC(=O)c2cc3n(n2)CCC[C@H]3N2CCC(C(=O)O)CC2)cccc1-c1cccc(Nc2nc(C(F)F)nc3cccnc23)c1C` [Compound 292, (R)-1-(2-((3'-((2-(difluoromethyl)pyrido[3,2-d]pyrimidin-4-yl)amino)-2,2'-dimethyl-[1,1'-biphenyl]-3-yl)carbamoyl)-4,5,6,7-tetrahydropyrazolo[1,5-a]pyridin-4-yl)piperidine-4-carboxylic acid] belongs less than 0.01 µM; to `Cc1c(NC(=O)c2cc3n(n2)CCC[C@H]3N2CC[C@@H](O)C2)cccc1-c1cccc(Nc2nc(C(F)(F)F)nc3cc(CN4CC[C@@H](O)C4)cnc23)c1C` [Compound 345], 0.01 to 0.1 µM; to `Cc1c(Nc2nccc3cc(CN4CC[C@@H](O)C4)cnc23)cccc1-c1cccc(NC(=O)c2cc3n(n2)CCCC3N2CCC(C(=O)O)CC2)c1Cl` (stereo partly drawn) [Compound 35, 1-(2-((2-chloro-3'-((3-(((R)-3-hydroxypyrrolidin-1-yl)methyl)-1,7-naphthyridin-8-yl)amino)-2'-methyl-[1,1'-biphenyl]-3-yl)carbamoyl)-4,5,6,7-tetrahydropyrazolo[1,5-a]pyridin-4-yl)piperidine-4-carboxylic acid], less than 0.01 µM.
In the case of `Cc1c(NC(=O)c2cc3n(n2)CCCC3N2CCC(C(=O)O)CC2)cccc1-c1cccc(Nc2nc(C(F)F)nc3cc(CN4CC[C@@H](O)C4)cnc23)c1C` (stereo partly drawn) [Compound 136, 1-(2-((3'-((2-(difluoromethyl)-7-(((R)-3-hydroxypyrrolidin-1-yl)methyl)pyrido[3,2-d]pyrimidin-4-yl)amino)-2,2'-dimethyl-[1,1'-biphenyl]-3-yl)carbamoyl)-4,5,6,7-tetrahydropyrazolo[1,5-a]pyridin-4-yl)piperidine-4-carboxylic acid], the IC50 was less than 0.01 µM.
Regarding `COc1nc(-c2cccc(-c3cccc(-c4cc5n(n4)CCCC5NCCO)c3Cl)c2Cl)cnc1CNC[C@@H]1CCC(=O)N1` (stereo partly drawn) [Compound 168, (5S)-5-((((5-(2,2'-dichloro-3'-(4-((2-hydroxyethyl)amino)-4,5,6,7-tetrahydropyrazolo[1,5-a]pyridin-2-yl)-[1,1'-biphenyl]-3-yl)-3-methoxypyrazin-2-yl)methyl)amino)methyl)pyrrolidin-2-one], the IC50 is less than 0.01 µM.
For `CC(=O)NCCNC1CCCn2nc(C(=O)Nc3cccc(-c4cccc(Nc5nccc6cc(CN7CC[C@@H](O)C7)cnc56)c4C)c3C)cc21` (stereo partly drawn) [Compound 12, 4-((2-acetamidoethyl)amino)-N-(3'-((3-(((R)-3-hydroxypyrrolidin-1-yl)methyl)-1,7-naphthyridin-8-yl)amino)-2,2'-dimethyl-[1,1'-biphenyl]-3-yl)-4,5,6,7-tetrahydropyrazolo[1,5-a]pyridine-2-carboxamide] the value was less than 0.01 µM.
To `CN[C@H]1CCCn2nc(C(=O)Nc3cccc(-c4cccc(NC(=O)c5cc6n(n5)CCC[C@@H]6NC)c4C)c3C)cc21` [Compound 312, (4S,4'S)-N,N'-(2,2'-dimethyl-[1,1'-biphenyl]-3,3'-diyl)bis(4-(methylamino)-4,5,6,7-tetrahydropyrazolo[1,5-a]pyridine-2-carboxamide)] belongs less than 0.01 µM.
As for `O=C(Nc1cccc(-c2cccc(NC(=O)c3cc4n(n3)CCCC4O)c2Cl)c1Cl)c1ccc(CNCCO)cn1` (stereo not shown) [Compound 81, N-(2,2'-dichloro-3'-(5-(((2-hydroxyethyl)amino)methyl)picolinamido)-[1,1'-biphenyl]-3-yl)-4-hydroxy-4,5,6,7-tetrahydropyrazolo[1,5-a]pyridine-2-carboxamide], the IC50 was less than 0.01 µM.
For `Cc1c(NC(=O)c2ccc(CN3CC[C@@H](O)C3)cn2)cccc1-c1cccc(NC(=O)c2cc3n(n2)CCC[C@@H]3N2CC(C(=O)O)C2)c1C` [Compound 265, 1-((S)-2-((3'-(5-(((R)-3-hydroxypyrrolidin-1-yl)methyl)picolinamido)-2,2'-dimethyl-[1,1'-biphenyl]-3-yl)carbamoyl)-4,5,6,7-tetrahydropyrazolo[1,5-a]pyridin-4-yl)azetidine-3-carboxylic acid] the value was less than 0.01 µM.
To `Cc1c(Nc2nccc3cc(CN4CC[C@@H](O)C4)cnc23)cccc1-c1cccc(NC(=O)c2cc3n(n2)CCCC3NCCO)c1Cl` (stereo partly drawn) [Compound 28, N-(2-chloro-3'-((3-(((R)-3-hydroxypyrrolidin-1-yl)methyl)-1,7-naphthyridin-8-yl)amino)-2'-methyl-[1,1'-biphenyl]-3-yl)-4-((2-hydroxyethyl)amino)-4,5,6,7-tetrahydropyrazolo[1,5-a]pyridine-2-carboxamide] belongs less than 0.01 µM; to `Cc1c(NC(=O)c2cc3n(n2)CCCC3NC(C)(C)C(=O)O)cccc1-c1cccc(NC(=O)c2nc3c(n2C)CCN(CCC24CCC(C(=O)O)(CC2)C4)C3)c1C` (stereo not shown) [Compound 51, 4-(2-(2-((3'-(4-((2-carboxypropan-2-yl)amino)-4,5,6,7-tetrahydropyrazolo[1,5-a]pyridine-2-carboxamido)-2,2'-dimethyl-[1,1'-biphenyl]-3-yl)carbamoyl)-1-methyl-6,7-dihydro-1H-imidazo[4,5-c]pyridin-5(4H)-yl)ethyl)bicyclo[2.2.1]heptane-1-carboxylic acid], less than 0.01 µM.
